Experimental data as given in patent US12551492B2, “Enthesis healing” (UNIVERSITY OF UTAH RESEARCH FOUNDATION, priority 2020, dated 2026).
Like-named read-outs stand apart in the source and are kept apart here.

B1: PDGF-BB: platelet derived growth factor-BB (protein, UniProt P01127 82-190, looked up)
Platelet-derived growth …: SLGSLTIAEPAMIAECKTRTEVFEISRRLIDRTNANFLVWPPCVEVQRCSGCCNNRNVQCRPTQVQLRPVQVRKIEIVRKKPIFKKATVTLEDHLACKCETVAAARPVT

Tests used:
[1] = cited from earlier work
[2] = system: rotator cuff repair; settings: mouse and rat models; cited from earlier work
[3] = system: rotator cuff enthesis; assay: Mouse rotator cuff repair, histological analyses four weeks post-operatively; type: in vivo, male wild type mice
Text: (§1) Twenty-nine male wild type mice were randomly divided into three study groups. Group 1 (Control) consisted of unoperated mice which provided intact “control” shoulders with normal rotator cuff tendons. Group 2 (Repair Only) was a surgical repair group injected with the drug carrier used in Group 3. Group 3 (Repair+DES) was a surgical repair group injected with diethylstilbestrol (DES). Twenty-three mice were sacrificed four weeks post-operatively and used for histological analyses including scanning electron & light microscopy. The six remaining mice (n=3 Repair Only and n=3 Repair+DES) were sacrificed at 2 weeks for RNA expression analysis of various chondrogenic, angiogenic, osteogenic, tendon maturation/modulation, and hormonal genes.

[4] = system: chondrogenic, angiogenic, osteogenic, tendon maturation/modulation, and hormonal genes; assay: Mouse rotator cuff repair, RNA expression analysis at 2 weeks; type: in vivo, male wild type mice; settings: Repair+DES vs Repair Only, p<0.02
Text: as §1

[5] = Multi-payor national database study: infection after rotator cuff repair; type: in vivo; settings: patients receiving testosterone replacement vs non-testosterone replacement patients, adjusted
Method: A study within a multi-payor large national database with over 160 million individuals was conducted including 292,666 patients who underwent RCR and an equal number of controls matched for age, sex, year of surgery, and years within the database.
The higher testosterone levels found in males as compared to females increase the presence of Cutibacterium acnes on the skin.

[6] = Table 1, available forms of estrogen
[7] = Table 2, available forms of testosterone

Molecule | Half-life [1, 6] | Half-life [1, 7] [days] | further results
CCCCCCC(=O)O[C@H]1CC[C@H]2[C@@H]3CCc4cc(O)ccc4[C@H]3CC[C@]12C [Estradiol enanthate] | 5 to 8 days | – | –
CCCCCCCCCCC(=O)O[C@H]1CC[C@H]2[C@@H]3CCc4cc(O)ccc4[C@H]3CC[C@]12C [Estradiol undecylate] | 1-2 mon | – | –
CCN(CC)CCOc1ccc(C(=C(Cl)c2ccccc2)c2ccccc2)cc1 [Clomiphene (SERM), Clomiphene] | 5 days | – | –
N#Cc1ccc(N2CCC[C@@H]2[C@@H](O)C(F)(F)F)cc1C(F)(F)F [Ligandrol] | – | 1 to 1.5 | –
CCCCCCCCCCC(=O)O[C@H]1CC[C@H]2[C@@H]3CCC4=CC(=O)CC[C@]4(C)[C@H]3CC[C@]12C [Testosterone undecanoate (PO), Testosterone undecanoate] | – | 0.0694 | Half-life ([1]; Table 2, available forms of testosterone, listed as Testosterone undecanoate (IM)): 34 days
C[C@]12CC[C@@H]3c4ccc(OC(=O)c5ccccc5)cc4CC[C@H]3[C@@H]1CC[C@@H]2O [Estradiol benzoate] | 2 to 5 days | – | –
CCCCC(=O)O[C@H]1CC[C@H]2[C@@H]3CCc4cc(O)ccc4[C@H]3CC[C@]12C [Estradiol valerate] | 4 to 5 days | – | –
C[C@](O)(COc1ccc(C#N)cc1)C(=O)Nc1ccc(C#N)c(C(F)(F)F)c1 [Enobosarm] | – | 0.0694 | –
FGF-2: fibroblast growth factor 2 | – | – | histologic or biomechanical characteristics after rotator cuff repair [2]: positively influence histologic or biomechanical characteristics
CC/C(=C(\c1ccccc1)c1ccc(OCCN(C)C)cc1)c1ccccc1 [Tamoxifen (SERM), Tamoxifen] | 5 to 7 days | – | –
CCCCCCC(=O)O[C@H]1CC[C@H]2[C@@H]3CCC4=CC(=O)CC[C@]4(C)[C@H]3CC[C@]12C [Testosterone enanthate] | – | 4.5 | –
CC/C(=C(/CC)c1ccc(O)cc1)c1ccc(O)cc1 [DES, diethylstilbestrol] | – | – | areas of calcified and uncalcified fibrocartilage ([3]; Repair Only vs Control and Repair+DES, p<0.03): significantly greater in the Repair Only group; bone formation within the humeral head ([3]; Repair+DES vs Repair Only and Control (intact tendon), p<0.001): increase of bone formation; osteogenic, angiogenic, and tendon modulation gene expression [4]: further increased
C[C@]12CC[C@H]3[C@@H](CCC4=CC(=O)CC[C@@]43C)[C@@H]1CC[C@@H]2O [testosterone] | – | – | increase in risk of having an infection after an RCR [5]: 75%
TGF-beta1: transforming growth factor beta1 | – | – | histologic or biomechanical characteristics after rotator cuff repair [2]: positively influence histologic or biomechanical characteristics
C[C@]12CC[C@H]3[C@@H](CCC4=CC(=O)CC[C@@]43C)[C@@H]1CC[C@@H]2OC(=O)CCC1CCCC1 [Testosterone cypionate] | – | 8 | –
CCC(=O)Oc1ccc2c(c1)CC[C@@H]1[C@@H]2CC[C@]2(C)[C@@H](OC(=O)CC)CC[C@@H]12 [Estradiol dipropionate] | >5 days | – | –
C[C@]12CC[C@@H]3c4ccc(O)cc4CC[C@H]3[C@@H]1CC[C@@H]2OC(=O)CCC1CCCC1 [Estradiol cypionate] | 8 to 10 days | – | –
CCC(=O)O[C@H]1CC[C@H]2[C@@H]3CCC4=CC(=O)CC[C@]4(C)[C@H]3CC[C@]12C [Testosterone propionate] | – | 2 | –
B1 | – | – | histologic or biomechanical characteristics after rotator cuff repair [2]: positively influence histologic or biomechanical characteristics
